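Compound exposure: 48 hours, 5 concentrations, 96-well plates. At the GI50, growth is halved. At the TGI there is no net growth.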
Columns and labels:
Experiment in all cases: DTP human tumour cell line panel, 48 h
786-0 renal = test system: 786-0 renal
A498 renal = test system: A498 renal
A549 NSCLC = test system: A549 NSCLC
ACHN renal = test system: ACHN renal
BT-549 breast = test system: BT-549 breast
CAKI-1 renal = test system: CAKI-1 renal
CCRF-CEM leukemia = test system: CCRF-CEM leukemia
COLO 205 colon = test system: COLO 205 colon
DU-145 prostate = test system: DU-145 prostate
EKVX NSCLC = test system: EKVX NSCLC
HCC-2998 colon = test system: HCC-2998 colon
HCT-116 colon = test system: HCT-116 colon
HCT-15 colon = test system: HCT-15 colon
HL-60(TB) leukemia = test system: HL-60(TB) leukemia
HOP-62 NSCLC = test system: HOP-62 NSCLC
HOP-92 NSCLC = test system: HOP-92 NSCLC
HS 578T breast = test system: HS 578T breast
HT29 colon = test system: HT29 colon
IGROV1 ovarian = test system: IGROV1 ovarian
K-562 leukemia = test system: K-562 leukemia
KM12 colon = test system: KM12 colon
LOX IMVI melanoma = test system: LOX IMVI melanoma
M14 melanoma = test system: M14 melanoma
MALME-3M melanoma = test system: MALME-3M melanoma
MCF7 breast = test system: MCF7 breast
MDA-MB-231 breast = test system: MDA-MB-231 breast
MOLT-4 leukemia = test system: MOLT-4 leukemia
NCI-H226 lung = test system: NCI-H226 lung
NCI-H23 lung = test system: NCI-H23 lung
NCI-H460 lung = test system: NCI-H460 lung
NCI/ADR-RES ovarian = test system: NCI/ADR-RES ovarian
OVCAR-4 ovarian = test system: OVCAR-4 ovarian
OVCAR-5 ovarian = test system: OVCAR-5 ovarian
OVCAR-8 ovarian = test system: OVCAR-8 ovarian
PC-3 prostate = test system: PC-3 prostate
RPMI-8226 leukemia = test system: RPMI-8226 leukemia
RXF 393 renal = test system: RXF 393 renal
SF-268 CNS = test system: SF-268 CNS
SF-295 CNS = test system: SF-295 CNS
SF-539 CNS = test system: SF-539 CNS
SK-MEL-2 melanoma = test system: SK-MEL-2 melanoma
SK-MEL-28 melanoma = test system: SK-MEL-28 melanoma
SK-MEL-5 melanoma = test system: SK-MEL-5 melanoma
SK-OV-3 ovarian = test system: SK-OV-3 ovarian
SN12C renal = test system: SN12C renal
SNB-19 CNS = test system: SNB-19 CNS
SNB-75 CNS = test system: SNB-75 CNS
SW-620 colon = test system: SW-620 colon
T-47D breast = test system: T-47D breast
TK-10 renal = test system: TK-10 renal
U251 CNS = test system: U251 CNS
UACC-257 melanoma = test system: UACC-257 melanoma
UACC-62 melanoma = test system: UACC-62 melanoma
UO-31 renal = test system: UO-31 renal

## CCC1=Cc2c(OC)cccc2OC12C=Cc1c(OC)cccc1O2 (stereo not drawn)
786-0 renal
  GI50: 1840 nM
  TGI: > 100000 nM
A498 renal
  GI50: 1300 nM
  TGI: 4170 nM
A549 NSCLC
  GI50: 1520 nM
  TGI: > 100000 nM
ACHN renal
  GI50: 2850 nM
  TGI: > 100000 nM
BT-549 breast
  GI50: 1610 nM
  TGI: 6220 nM
CAKI-1 renal
  GI50: 858 nM
  TGI: > 100000 nM
CCRF-CEM leukemia
  GI50: 551 nM
  TGI: > 100000 nM
COLO 205 colon
  GI50: 1310 nM
  TGI: 3700 nM
DU-145 prostate
  GI50: 2140 nM
  TGI: > 100000 nM
EKVX NSCLC
  GI50: 4740 nM
  TGI: > 100000 nM
HCC-2998 colon
  GI50: 2580 nM
  TGI: 13200 nM
HCT-116 colon
  GI50: 436 nM
  TGI: > 100000 nM
HCT-15 colon
  GI50: 469 nM
  TGI: > 100000 nM
HL-60(TB) leukemia
  GI50: 507 nM
  TGI: > 100000 nM
HOP-62 NSCLC
  GI50: 1660 nM
  TGI: > 100000 nM
HOP-92 NSCLC
  GI50: 1000 nM
  TGI: 8790 nM
HS 578T breast
  GI50: 2550 nM
  TGI: > 100000 nM
HT29 colon
  GI50: 508 nM
  TGI: 3760 nM
IGROV1 ovarian
  GI50: 2500 nM
  TGI: > 100000 nM
K-562 leukemia
  GI50: 463 nM
  TGI: > 100000 nM
KM12 colon
  GI50: 519 nM
  TGI: 32400 nM
LOX IMVI melanoma
  GI50: 1600 nM
  TGI: > 100000 nM
M14 melanoma
  GI50: 570 nM
  TGI: 22000 nM
MALME-3M melanoma
  GI50: 3790 nM
  TGI: > 100000 nM
MCF7 breast
  GI50: 414 nM
  TGI: > 100000 nM
MDA-MB-231 breast
  GI50: 2030 nM
  TGI: 73200 nM
MOLT-4 leukemia
  GI50: 2390 nM
  TGI: > 100000 nM
NCI-H226 lung
  GI50: 2840 nM
  TGI: 52100 nM
NCI-H23 lung
  GI50: 2930 nM
  TGI: > 100000 nM
NCI-H460 lung
  GI50: 2570 nM
  TGI: 14200 nM
NCI/ADR-RES ovarian
  GI50: 678 nM
  TGI: > 100000 nM
OVCAR-4 ovarian
  GI50: 47400 nM
  TGI: > 100000 nM
OVCAR-5 ovarian
  GI50: 1840 nM
  TGI: > 100000 nM
OVCAR-8 ovarian
  GI50: 2150 nM
  TGI: 6510 nM
PC-3 prostate
  GI50: 1730 nM
  TGI: > 100000 nM
RPMI-8226 leukemia
  GI50: 2870 nM
  TGI: > 100000 nM
RXF 393 renal
  GI50: 990 nM
  TGI: 7290 nM
SF-268 CNS
  GI50: 3090 nM
  TGI: > 100000 nM
SF-295 CNS
  GI50: 1010 nM
  TGI: > 100000 nM
SF-539 CNS
  GI50: 1570 nM
  TGI: 9030 nM
SK-MEL-2 melanoma
  GI50: 1220 nM
  TGI: 6030 nM
SK-MEL-28 melanoma
  GI50: > 100000 nM
  TGI: > 100000 nM
SK-MEL-5 melanoma
  GI50: 1240 nM
  TGI: 8330 nM
SK-OV-3 ovarian
  GI50: 2930 nM
  TGI: > 100000 nM
SN12C renal
  GI50: 940 nM
  TGI: > 100000 nM
SNB-19 CNS
  GI50: 646 nM
  TGI: > 100000 nM
SNB-75 CNS
  GI50: 1310 nM
  TGI: 9270 nM
SW-620 colon
  GI50: 707 nM
  TGI: > 100000 nM
T-47D breast
  GI50: 16300 nM
  TGI: > 100000 nM
TK-10 renal
  GI50: 24500 nM
  TGI: > 100000 nM
U251 CNS
  GI50: 1090 nM
  TGI: > 100000 nM
UACC-257 melanoma
  GI50: 7480 nM
  TGI: > 100000 nM
UACC-62 melanoma
  GI50: 530 nM
  TGI: > 100000 nM
UO-31 renal
  GI50: 2400 nM
  TGI: > 100000 nM

Source: PubChem BioAssay (NCI)
